Laboratory results from PMC7600351 (Pharmaceutics, 2020).
Like-named read-outs stand apart in the source and are kept apart here.

Tests used:
[1] = test system: P-gp; set-up: method as in PMID 7113754; conditions: two case reports; cited from earlier work
[2] = test system: LS180 cells; assay: Growth inhibition in LS180 cells (crystal violet); format: cell-based; conditions: Homo sapiens
Procedure: Proliferation was quantified by crystal violet staining and the assays were conducted as described previously. Each concentration was tested in octuplet and each experiment was performed in quadruplicate.

[3] = target: T1, OATP1B1 (Homo sapiens, UniProt Q9Y6L6); assay: Flow cytometric OATP1B1 inhibition assay (8-FcA uptake, HEK-OATP1B1); format: cell-based
T1 construct: expressed in transfected cells; host or cells: HEK293 (HEK-OATP1B1)
T1 sequence (Q9Y6L6 whole entry): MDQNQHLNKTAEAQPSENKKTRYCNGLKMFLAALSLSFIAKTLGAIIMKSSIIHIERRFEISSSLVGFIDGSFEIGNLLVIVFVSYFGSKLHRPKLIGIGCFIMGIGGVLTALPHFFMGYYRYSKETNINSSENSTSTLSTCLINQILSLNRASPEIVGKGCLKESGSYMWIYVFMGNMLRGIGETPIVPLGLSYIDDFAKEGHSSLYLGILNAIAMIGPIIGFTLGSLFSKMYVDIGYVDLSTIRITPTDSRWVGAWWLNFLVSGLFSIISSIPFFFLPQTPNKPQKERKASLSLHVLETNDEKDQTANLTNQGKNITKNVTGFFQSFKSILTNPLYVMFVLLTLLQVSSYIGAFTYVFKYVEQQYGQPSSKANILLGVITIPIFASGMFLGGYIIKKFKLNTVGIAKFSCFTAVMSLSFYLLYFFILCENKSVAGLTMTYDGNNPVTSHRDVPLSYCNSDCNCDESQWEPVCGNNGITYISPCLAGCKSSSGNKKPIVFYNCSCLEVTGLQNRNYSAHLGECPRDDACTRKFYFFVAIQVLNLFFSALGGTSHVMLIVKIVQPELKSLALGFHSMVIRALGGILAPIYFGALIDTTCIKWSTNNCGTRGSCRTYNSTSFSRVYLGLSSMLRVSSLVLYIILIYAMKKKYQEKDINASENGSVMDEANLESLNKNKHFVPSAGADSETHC
Procedure: (§1) As cell models for human OATP1B1 and OATP1B3, HEK293, a human embryonic kidney cell line, stably transfected with OATP1B1 (HEK-OATP1B1), OATP1B3 (HEK-OATP1B3), or the empty control vector (HEK293-VC G418) were used. Cells were cultured under standard cell culture conditions with DMEM supplemented with 10% FCS, 2 mM glutamine, 100 U/mL penicillin, 100 µg/mL streptomycin sulphate, and 800 µg/mL G418. Inhibition of the OATPs was quantified by flow cytometry assessing the uptake of 8-FcA into HEK293 cells over-expressing the respective transporter after 10 min incubation and normalised to the control cell line as described previously. Intracellular fluorescence was quantified in a MACSQuant 10 Analyzer (Milteny, Bergisch-Gladbach, Germany) with the 488 nm laser for excitation and the 525 nm bandfilter for emission (FITC channel). Excluding debris, living cells were gated in the forward/sideward scatter by using the unstained sample. For each concentration (0.1–100 µM), 30,000 cells were measured and each experiment was performed in triplicate. Rifampicin (20 µM), a well-known inhibitor of OATP1B1 and OATP1B3, was used as a positive control.

[4] = test system: P-gp (P388/dx cells); assay: P-gp inhibition, calcein-AM uptake assay in P388/dx vs P388 cells; format: cell-based, murine; conditions: not in parental P388, 1 µM calcein-AM, IC50 could not be calculated
Procedure: (§2) P-gp inhibition was tested with a calcein assay as published previously using two different cell systems: the L-MDR1 cell line that over-expresses human P-gp and the corresponding parental cell line LLC-PK1 [19] and the P-gp over-expressing murine monocytic cell line P388/dx and its parental counterpart cell line P388 as a control. LLC-PK1 and L-MDR1 cells were cultured under standard cell culture conditions with medium M199 supplemented with 10% FCS, 2 mM glutamine, 100 U/mL penicillin, and 100 µg/mL streptomycin sulphate. […] One day before using the cells for the calcein assay, both cell lines were fed with vincristine-free culture medium. […] One day before the inhibition assay, both P388 cell lines were set to the doxorubicin-free culture medium.
(§3) In brief, the assay was performed in 96-well plates with a final calcein-AM concentration of 0.5 µM for the LLC cell system and 1 µM for the P388 cell system. Cells were washed with pre-warmed HBSS supplemented with 10 mM HEPES (HHBSS) and pre-incubated with this buffer for 30 min and subsequently with the test compound for 10 min (LLC cell system) or 15 min (P388 cell system). After pre-incubation, calcein-AM was added and the cells were incubated for 60 min (LLC system) or 30 min (P388 cell system) at 37 °C on a rotary shaker (Noctua, Vienna, Austria). […]

[5] = test system: organic cation transporters (OCTs); conditions: cited from earlier work
[6] = test system: OATP1A2; conditions: uptake of all-trans-retinol in vitro; cited from earlier work
[7] = test system: LLC-PK1 cells; assay: Growth inhibition assay (crystal violet), parental LLC-PK1; format: cell-based; conditions: Sus scrofa
Procedure: (§4) Cell lines with overexpression of an efflux transporter are more resistant to the anti-proliferative effects of a compound if this compound is a substrate of the respective transporter and can be extruded from the cell. […] Reversal of drug resistance was tested by using the P-gp-specific inhibitor LY335979 (zosuquidar) or the BCRP-specific inhibitor FTC. The assay using crystal violet staining was conducted and analysed as described previously. Each experiment was performed at least in quadruplicate with n = 8 wells for each concentration (0.1–500 µM).

[8] = test system: OATP2B1; conditions: at 10 µM; cited from earlier work
[9] = test system: L-MDR1 cells (over-expression of human P-gp); assay: Growth inhibition assay (crystal violet), P-gp over-expressing L-MDR1; format: cell-based; conditions: growth inhibition L-MDR1 vs LLC-PK1 with and without LY335979
Procedure: as §4

[10] = test system: P-gp (substrate test by growth inhibition); assay: as above; format: cell-based; conditions: pig, L-MDR1 cells (LLC-PK1 over-expressing human P-gp)
Procedure: as §4

[11] = test system: BCRP (substrate test by growth inhibition); assay: Growth inhibition assay (crystal violet), BCRP over-expressing MDCKII-BCRP; format: cell-based; conditions: dog, MDCKII-BCRP cells (MDCKII over-expressing human BCRP)
Procedure: as §4

[12] = test system: MDCKII-BCRP cells (over-expressing human BCRP); assay: as above; format: cell-based; conditions: growth inhibition MDCKII-BCRP vs MDCKII with and without FTC
Procedure: as §4

[13] = target: T2, OATP2B1 (Homo sapiens, UniProt O94956); assay: Flow cytometric OATP2B1 inhibition assay (DBF uptake, HEK293 with tetracycline-induced OATP2B1); format: cell-based
T2 construct: expressed in transfected cells; host or cells: HEK293, tetracycline-induced OATP2B1 expression
T2 sequence (O94956 whole entry): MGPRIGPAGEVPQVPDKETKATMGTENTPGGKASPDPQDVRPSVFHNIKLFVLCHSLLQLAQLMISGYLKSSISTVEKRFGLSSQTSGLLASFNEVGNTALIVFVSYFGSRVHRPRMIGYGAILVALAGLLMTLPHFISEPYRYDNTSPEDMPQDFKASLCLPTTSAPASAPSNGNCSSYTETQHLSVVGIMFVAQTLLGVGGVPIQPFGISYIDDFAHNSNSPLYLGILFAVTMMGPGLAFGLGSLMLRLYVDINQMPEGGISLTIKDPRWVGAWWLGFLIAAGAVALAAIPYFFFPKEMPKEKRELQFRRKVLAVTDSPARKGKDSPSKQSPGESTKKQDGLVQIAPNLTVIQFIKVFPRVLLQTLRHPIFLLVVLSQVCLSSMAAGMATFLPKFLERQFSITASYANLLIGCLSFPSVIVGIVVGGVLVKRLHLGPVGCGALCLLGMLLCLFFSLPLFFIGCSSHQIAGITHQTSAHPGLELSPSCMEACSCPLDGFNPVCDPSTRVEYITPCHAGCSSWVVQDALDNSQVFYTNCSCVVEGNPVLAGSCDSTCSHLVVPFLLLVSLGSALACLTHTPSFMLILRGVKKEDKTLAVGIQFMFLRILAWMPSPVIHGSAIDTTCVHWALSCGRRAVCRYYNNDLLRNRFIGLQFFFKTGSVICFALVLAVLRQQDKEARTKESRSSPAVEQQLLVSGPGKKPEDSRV
Procedure: As a cell model for human OATP2B1, HEK293 cells over-expressing OATP2B1 in the presence of tetracycline were used. Cells were cultured under standard cell culture conditions with DMEM/Ham’s F12 medium supplemented with 10% FCS, 4 mM glutamine, 100 U/mL penicillin, and 100 µg/mL streptomycin sulphate. To generate OATP2B1 over-expression, cells were treated 72 h before the assay with 1 µg/mL tetracycline. […] Excluding debris, living cells were gated in the forward/sideward scatter by using the unstained sample. […] Uptake in cells with tetracycline induction was normalised to the uptake in cells without induction. Naringin (1 mM) was used as a positive control.

[14] = test system: ABCG2; assay: Induction assay in LS180 cells, ABCG2 mRNA (real-time RT-PCR); format: cell-based, human; conditions: LS180, 4 days; hydroxychloroquine 1, 2, 10, 20 µM; rifampicin 20 µM; omeprazole 150 µM
Procedure: (§5) For induction experiments, the human colon adenocarcinoma cell line LS180 (available at ATCC, Manassas, VA, USA) was used. This cell line is an established model for investigating gene inductions mediated by PXR or AhR [25, 28]. Cells were cultured under standard cell culture conditions in DMEM supplemented with 10% FCS, 100 U/mL penicillin, 100 µg/mL streptomycin sulphate, 0.1 mM non-essential amino acids, and 2 mM glutamine.
(§6) All media were adjusted to the DMSO content of the solution with the highest DMSO content in the respective experiment (0.1%). The experiment was conducted in quintuplicate. RNA was extracted immediately after harvesting the cells and stored at −80 °C until processing.
(§7) RNA was isolated using the GenElute™ Mammalian Total RNA Miniprep Kit, and cDNA was synthesized with the RevertAid™ H Minus First Strand cDNA Synthesis Kit according to the manufacturer’s instructions. mRNA expression was quantified by real-time RT-PCR with the LightCycler® 480 (Roche Applied Science, Mannheim, Germany) as described previously. […] Data were evaluated via calibrator-normalised relative quantification with efficiency correction using the LightCycler® 480 software version 1.5.1.62 (Roche Applied Science, Mannheim, Germany). Results were expressed as the target/reference ratio divided by the target/reference ratio of the calibrator. The results are therefore corrected for sample inhomogeneities and variance caused by detection. All samples were amplified in duplicate and the mean of the technical duplicate was used for further calculation.

[15] = cited from earlier work
[16] = test system: organic cation/carnitine transporters (OCTNs); conditions: cited from earlier work
[17] = target: T3, OATP1B3 (Homo sapiens, UniProt Q9NPD5); assay: Flow cytometric OATP1B3 inhibition assay (8-FcA uptake, HEK-OATP1B3); format: cell-based
T3 construct: expressed in transfected cells; host or cells: HEK293 (HEK-OATP1B3)
T3 sequence (Q9NPD5 whole entry): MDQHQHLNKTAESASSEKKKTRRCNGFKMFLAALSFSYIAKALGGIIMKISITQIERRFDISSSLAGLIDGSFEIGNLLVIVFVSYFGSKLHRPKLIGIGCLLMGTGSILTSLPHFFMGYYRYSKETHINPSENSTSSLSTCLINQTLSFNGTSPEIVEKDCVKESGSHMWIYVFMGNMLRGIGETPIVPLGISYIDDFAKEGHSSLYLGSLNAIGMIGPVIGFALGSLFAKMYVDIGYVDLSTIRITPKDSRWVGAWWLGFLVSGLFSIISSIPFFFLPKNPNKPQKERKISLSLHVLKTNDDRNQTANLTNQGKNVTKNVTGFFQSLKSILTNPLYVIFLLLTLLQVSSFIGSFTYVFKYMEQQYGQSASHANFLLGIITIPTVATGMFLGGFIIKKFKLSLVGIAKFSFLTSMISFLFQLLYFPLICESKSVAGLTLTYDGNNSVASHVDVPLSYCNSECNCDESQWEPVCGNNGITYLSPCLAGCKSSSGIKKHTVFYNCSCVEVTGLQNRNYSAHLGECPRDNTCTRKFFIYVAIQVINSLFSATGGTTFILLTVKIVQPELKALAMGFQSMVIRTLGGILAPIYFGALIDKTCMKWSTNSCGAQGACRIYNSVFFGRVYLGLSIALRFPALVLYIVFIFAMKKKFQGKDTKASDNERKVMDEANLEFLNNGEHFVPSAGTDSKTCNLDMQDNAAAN
Procedure: as §1

[18] = test system: all cell lines used; assay: Cytotoxicity Detection Kit (LDH release); format: cell-based; conditions: up to 100 µM
Excerpt: The toxic effects of tested compounds can negatively influence transporter inhibition assays.

[19] = test system: MDCKII cells; assay: Growth inhibition assay (crystal violet), parental MDCKII; format: cell-based; conditions: Canis lupus familiaris, MDCK-II
Procedure: as §4

[20] = test system: CYP3A4
Procedure: as §5, §6
as §7, with “The results are therefore corrected for sample inhomogeneities and variance caused by detection. All samples were amplified in duplicate and the mean of the technical duplicate was used for further calculation.” left out

[21] = test system: CYP1A2; assay: Induction assay in LS180 cells, CYP1A2 mRNA (real-time RT-PCR); conditions: LS180, 4 days; hydroxychloroquine 1, 2, 10, 20 µM; omeprazole 150 µM
Procedure: as §5, §6
as §7, with “The results are therefore corrected for sample inhomogeneities and variance caused by detection. All samples were amplified in duplicate and the mean of the technical duplicate was used for further calculation.” left out

[22] = test system: OATP1B3; conditions: at 10 µM; cited from earlier work
[23] = test system: CYP1A1; assay: Induction assay in LS180 cells, CYP1A1 mRNA (real-time RT-PCR); format: cell-based, human; conditions: LS180, 4 days; hydroxychloroquine 1, 2, 10, 20 µM; omeprazole 150 µM
Procedure: as §5, §6
as §7, with “The results are therefore corrected for sample inhomogeneities and variance caused by detection. All samples were amplified in duplicate and the mean of the technical duplicate was used for further calculation.” left out

[24] = test system: organic anion transporters (OATs); conditions: cited from earlier work
[25] = test system: ABCB1; assay: Induction assay in LS180 cells, ABCB1 mRNA (real-time RT-PCR); format: cell-based, human; conditions: LS180, 4 days; hydroxychloroquine 1, 2, 10, 20 µM; rifampicin 20 µM
Procedure: as §5, §6
as §7, with “The results are therefore corrected for sample inhomogeneities and variance caused by detection. All samples were amplified in duplicate and the mean of the technical duplicate was used for further calculation.” left out

[26] = target: T4, human P-gp (Homo sapiens, UniProt P08183); assay: P-gp inhibition, calcein-AM uptake assay in L-MDR1 vs LLC-PK1 cells; format: cell-based; conditions: L-MDR1 cells and parental LLC-PK1; 0.01–100 µM; 0.5 µM calcein-AM
T4 construct: expressed in transfected cells; host or cells: L-MDR1 (derived from porcine LLC-PK1)
T4 sequence (P08183 whole entry): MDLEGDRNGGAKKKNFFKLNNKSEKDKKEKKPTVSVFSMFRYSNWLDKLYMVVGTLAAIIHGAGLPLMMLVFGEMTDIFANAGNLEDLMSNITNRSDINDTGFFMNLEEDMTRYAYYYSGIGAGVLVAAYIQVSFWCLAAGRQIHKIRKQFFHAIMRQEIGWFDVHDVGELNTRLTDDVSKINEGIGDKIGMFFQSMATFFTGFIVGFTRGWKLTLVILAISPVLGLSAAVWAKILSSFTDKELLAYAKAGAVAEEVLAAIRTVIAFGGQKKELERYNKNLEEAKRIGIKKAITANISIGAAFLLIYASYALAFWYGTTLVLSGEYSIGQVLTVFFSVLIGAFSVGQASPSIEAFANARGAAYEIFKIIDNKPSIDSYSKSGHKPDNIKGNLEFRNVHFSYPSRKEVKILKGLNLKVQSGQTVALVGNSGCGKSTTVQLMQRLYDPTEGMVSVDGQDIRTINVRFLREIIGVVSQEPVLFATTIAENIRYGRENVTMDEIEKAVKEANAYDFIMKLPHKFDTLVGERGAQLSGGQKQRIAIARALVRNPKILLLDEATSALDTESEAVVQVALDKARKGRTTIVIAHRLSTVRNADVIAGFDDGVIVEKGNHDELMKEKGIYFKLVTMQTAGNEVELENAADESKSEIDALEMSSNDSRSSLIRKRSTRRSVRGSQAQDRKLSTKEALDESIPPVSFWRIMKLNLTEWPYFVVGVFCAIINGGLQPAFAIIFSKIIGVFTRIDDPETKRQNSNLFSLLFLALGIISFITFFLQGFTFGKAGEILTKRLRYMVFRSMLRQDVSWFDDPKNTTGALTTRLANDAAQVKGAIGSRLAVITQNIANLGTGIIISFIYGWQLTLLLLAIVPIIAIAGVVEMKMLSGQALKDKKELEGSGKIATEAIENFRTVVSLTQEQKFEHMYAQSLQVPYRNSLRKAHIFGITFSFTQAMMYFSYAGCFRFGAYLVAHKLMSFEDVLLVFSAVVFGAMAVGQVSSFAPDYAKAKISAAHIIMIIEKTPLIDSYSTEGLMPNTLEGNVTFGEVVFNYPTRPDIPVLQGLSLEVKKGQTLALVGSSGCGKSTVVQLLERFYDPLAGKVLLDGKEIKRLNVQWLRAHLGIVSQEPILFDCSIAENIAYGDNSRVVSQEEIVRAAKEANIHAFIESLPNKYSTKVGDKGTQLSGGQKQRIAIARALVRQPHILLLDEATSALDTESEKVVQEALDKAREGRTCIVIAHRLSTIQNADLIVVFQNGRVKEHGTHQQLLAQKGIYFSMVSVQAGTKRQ
Procedure: as §2, §3

[27] = 0.1–100 µM, 8-FcA uptake, 10 min

## CCN(CCO)CCCC(C)Nc1ccnc2cc(Cl)ccc12 (centres unmarked) [hydroxychloroquine]
[1]
  effect on digoxin plasma concentrations during concurrent therapy: increased plasma concentrations of digoxin
[2]
  IC20: 22.5 ± 7.3 µM
[3]; [27]
  OATP1B1 inhibition: did not inhibit
[4]
  concentrations at which intracellular calcein fluorescence was increased (weak P-gp inhibition): higher than 10 µM
[5]
  inhibition of organic cation transporters (OCTs): no inhibition
[6]
  OATP1A2 inhibition: competitive inhibitor
[7]; LLC-PK1, LLC-PK1
  IC50: 82 ± 10 µM
[7]; LLC-PK1, LLC-PK1 + LY335979 (P-gp inhibitor)
  IC50: 93 ± 2 µM
[8]
  OATP2B1 inhibition: about 20%
[9]
  P-gp substrate characteristics: substrate of the efflux transporter P-gp
[10]
  IC50: 427 ± 16 µM
[10]; with LY335979 (zosuquidar), concentration not given, L-MDR1 + LY335979 (P-gp inhibitor)
  IC50: 90 ± 1 µM
[11]
  IC50: 88 ± 9 µM
[11]; with FTC, concentration not given, MDCKII-BCRP + FTC
  IC50: 92 ± 5 µM
[12]
  BCRP substrate characteristics: not transported by BCRP
[13]; 0.1–100 µM, 1 µM DBF uptake, 10 min
  OATP2B1 inhibition: did not inhibit
[14]
  ABCG2 mRNA expression: no significant effect
[15]; 400 mg/day
  blood concentrations at steady-state: up to 9 µM
[15]; in blood
  volume of distribution: 5522 L
[15]; in plasma
  volume of distribution: 44,257 L
[15]; lysosomes
  concentration within lysosomes at steady-state (postulated): 80000 µM
[15]; tissue/cells
  average intracellular concentration at steady-state (postulated): 1 mM
[16]
  inhibition of organic cation/carnitine transporters (OCTNs): no inhibition
[17]; [27]
  OATP1B3 inhibition: did not inhibit
[18]
  toxic effects (LDH release): no toxic effects
[19]
  IC50: 89 ± 12 µM
[20]
  CYP3A4 mRNA expression: no significant effect
[21]
  CYP1A2 mRNA expression: no significant effect
[22]
  OATP1B3 inhibition: about 20%
[23]
  CYP1A1 mRNA expression: no significant effect
[24]
  inhibition of organic anion transporters (OATs): weak inhibition
[25]
  ABCB1 mRNA expression: no significant effect
[26]
  effect on intracellular calcein fluorescence (P-gp inhibition): did not affect intracellular calcein fluorescence

## C[C@@H]1O[C@@H](O[C@H]2[C@H](Oc3cc(O)c4c(c3)O[C@H](c3ccc(O)cc3)CC4=O)O[C@H](CO)[C@@H](O)[C@@H]2O)[C@H](O)[C@H](O)[C@H]1O [naringin]
[13]; human, probe DBF (1 µM), 1 mM, positive control
  inhibition at 10 min, 1 mM: 70%

## COc1ccc2[nH]c([S+]([O-])Cc3ncc(C)c(OC)c3C)nc2c1 (centres unmarked) [omeprazole]
[14]
  ABCG2 mRNA expression: significantly up-regulated
[21]
  CYP1A2 mRNA expression: significantly up-regulated
[23]
  CYP1A1 mRNA expression: significantly up-regulated

## CO[C@H]1/C=C/O[C@@]2(C)Oc3c(C)c(O)c4c(O)c(c(/C=N/N5CCN(C)CC5)c(O)c4c3C2=O)NC(=O)/C(C)=C\C=C\[C@H](C)[C@H](O)[C@@H](C)[C@@H](O)[C@@H](C)[C@H](OC(C)=O)[C@@H]1C [rifampicin]
[3]; human, HEK293 cells stably transfected with OATP1B1 (HEK-OATP1B1), probe 8-FcA, 20 µM, positive control
  inhibition at 10 min, 20 µM: 80%
[14]
  ABCG2 mRNA expression: slightly
[17]; human, HEK293 cells stably transfected with OATP1B3 (HEK-OATP1B3), probe 8-FcA, 20 µM, positive control
  inhibition at 10 min, 20 µM: 90%
[25]
  ABCB1 mRNA expression: significantly up-regulated
